Data from ChEMBL document CHEMBL2390872, “Synthesis and biological evaluation of Esaprazole analogues showing σ1 binding and neuroprotective properties in vitro” (Bioorg Med Chem, 2013).

Assay: in vitro
Conditions: rat, liver microsomes
`O=C(CN1CCNCC1)NC1CCCCC1` [ESAPRAZOLE] gave a half-life greater than 60 min.
Molecule `O=C(CN1CCN2CCC[C@@H]2C1)NC1CCCCC1` has a half-life of 8.2 min.
With `O=C(CCN1C[C@@H]2C[C@H]1CN2)NC1CCCCC1` the half-life was 45 min.
Molecule `O=C(CCN1CCN(C(=O)C2CC2)CC1)NC1CCCCC1` has a half-life greater than 60 min.
In the case of `CCN1CCN(CC(=O)N(C)C2CCCC2)CC1C` (racemic), the half-life is reported as 21 min.
`O=C(CN1CCN2CCC[C@H]2C1)NC1CCCCC1` gave a half-life of 4.2 min.
With `CC(C)(C)CCNC(=O)CN1CCN(C(=O)C2CCCCC2)CC1` the half-life was 21 min.

Assay: in vivo
Conditions: rat, brain/plasma, po, 1600 mg/kg
`O=C(CN1CCNCC1)NC1CCCCC1` [ESAPRAZOLE] showed a Kp at 2 h of 0.25.
